Reference: ChEMBL document CHEMBL1155779, “Characterization of the PON1 active site using modeling simulation, in relation to PON1 lactonase activity” (Bioorg Med Chem, 2008)

biological target: Serum paraoxonase/arylesterase 1 (Homo sapiens) (UniProt P27169); assay: Activity at human recombinant PON1 assessed as hydrolysis of lactone ring at 1 mM by Ellman's method
Sequence (P27169 whole entry): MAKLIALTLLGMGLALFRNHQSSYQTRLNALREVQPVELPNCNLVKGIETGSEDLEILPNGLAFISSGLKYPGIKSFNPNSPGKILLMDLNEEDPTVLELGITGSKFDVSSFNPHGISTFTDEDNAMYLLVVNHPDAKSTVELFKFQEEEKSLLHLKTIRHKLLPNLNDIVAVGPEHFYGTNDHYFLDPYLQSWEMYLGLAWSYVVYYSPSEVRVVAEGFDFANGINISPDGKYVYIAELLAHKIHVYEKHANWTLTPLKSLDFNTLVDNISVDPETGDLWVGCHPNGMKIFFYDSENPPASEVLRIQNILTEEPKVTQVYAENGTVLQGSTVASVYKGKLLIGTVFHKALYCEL

| SMILES | Activity |
| --- | --- |
| O=C1Cc2ccccc2O1 | 13.6 µmol/min/mg |
| C[C@H]1CC(=O)O1 | 3.83 µmol/min/mg |
| CC1=CCC(=O)O1 | 18.3 µmol/min/mg |
| O=C(O)Cc1ccccc1 | 112 µmol/min/mg |

Continued, values first:

| Activity | SMILES |
| --- | --- |
| 33 µmol/min/mg | O=C1Cc2cc(O)ccc2O1 |
| 0.83 µmol/min/mg | O=C1C[C@H]2C=CC[C@H]2O1 |
| 1.67 µmol/min/mg | O=C1C[C@@H]2C=CC[C@@H]2O1 |
